Legend:
[1] = system: isolated rabbit thoracic aorta preparations; test: Vessel relaxation assay in isolated rabbit thoracic aorta rings; format: cell-based; settings: Oryctolagus cuniculus; rabbit aortic rings precontracted with noradrenaline, functional endothelium
Method: The ability of the compounds to induce vasorelaxation was tested in vitro in isolated rabbit thoracic aorta preparations (Wanstall J. C. et al., Br. J. Pharmacol., 134:463-472, 2001). Male New Zealand rabbits were anaesthetized with thiopental-Na (50 mg/kg, iv), sacrificed by exsanguinations and then the thorax was opened and the aorta dissected. Aortic ring preparations (4 mm in length) were set up in physiological salt solution (PSS) at 37° C. in small organ chambers (5 ml). The composition of PSS was (mM): NaCl 130, NaHCO3 14.9, KH2PO4 1.2, MgSO4 1.2, HEPES 10, CaCl2, ascorbic acid […] and glucose 1.1 (95% O2/5% CO2; pH 7.4). Each ring was mounted under 2 g passive tension. Isometric tension was recorded with a Grass transducer (Grass FT03) attached to a BIOPAC MP150 System. Preparations were allowed to equilibrate for 1 h, and then contracted submaximally with noradrenaline (NA, 1 μM) and, when the contraction was stable, acetylcholine (ACh, 10 μM) was added. A relaxant response to ACh indicated the presence of a functional endothelium. […] When a stable precontraction was reached, a cumulative concentration-response curve to either of the vasorelaxant agents was obtained in the presence of a functional endothelium. Each arterial ring was exposed to only one combination of inhibitor and vasorelaxant. […]
Example 3 and 4 were evaluated for vessel relaxation.

[2] = system: conscious telemetered dogs; test: Systolic blood pressure lowering after oral administration to conscious telemetered dogs; format: in vivo, dog; settings: 10 mg/kg
Source text: Compounds 1 and 2 shown below were studied for systolic blood pressure lowering when orally administered to conscious telemetered dogs.

| Compound | EC50 [1] [µM] | Approximate change in systolic blood pressure (mmHg), 1-6 h ([2]; 1-6 h) [mmHg] | Approximate change in systolic blood pressure (mmHg), 6-12 h ([2]; 6-12 h) [mmHg] | Approximate change in systolic blood pressure (mmHg), 12-18 h ([2]; 12-18 h) [mmHg] |
| --- | --- | --- | --- | --- |
| CCOc1nc2cccc(C(=O)OC(C)(C)OC(=O)OCCC(C)[C@@H](O[N+](=O)[O-])[C@@H](C)O[N+](=O)[O-])c2n1Cc1ccc(-c2ccccc2-c2nnn[nH]2)cc1 (stereo partly drawn) [Example 4, 1-[({[(4R,5R)-3 Methyl-4,5-bis(nitrooxy)hexyl]oxy}carbonyl)oxy]-1-methylethyl 2-ethoxy-1-{[2′-(1H-tetrazol-5-yl)biphenyl-4-yl]methyl}-1H-benzimidazole-7-carboxylate] | 6.4 | – | – | – |
| CCCCc1nc(Cl)c(C(=O)OC(C)OC(=O)OCCC(C)[C@@H](O[N+](=O)[O-])[C@@H](C)O[N+](=O)[O-])n1Cc1ccc(-c2ccccc2-c2nnn[nH]2)cc1 (stereo partly drawn) [Example 3, 1-[({[(4R,5R)-3-methyl-4,5-bis(nitrooxy)hexyl]oxy}carbonyl)oxy]ethyl 2-butyl-4-chloro-1-{[2′-(1H-tetrazol-5-yl)biphenyl-4-yl]methyl}-1H-imidazole-5-carboxylate] | 8.5 | – | – | – |
| CCCCc1nc(Cl)c(C(=O)OC(C)OC(=O)OCCCC[C@H](CO[N+](=O)[O-])O[N+](=O)[O-])n1Cc1ccc(-c2ccccc2-c2nnn[nH]2)cc1 (some centres unmarked) [Compound 1] | – | −14 | −7 | 3 |

From patent publication US8252825B2, “Angiotensin II receptor antagonists” (NicOx, priority 2007, dated 2012)
